Experiment: refractive index (Na D-line) (dimensionless); xn = mol fraction of the nth substance listed
Conditions: 101 kPa, Liquid, Standard Abbe refractometry

COC(=O)CCCCC(=O)OC [dimethyl 1,6-hexanedioate] + CCCCO
refractive index
Conditions | x1 = 0.0999 | x1 = 0.2004 | x1 = 0.2999 | x1 = 0.4003 | x1 = 0.4999 | x1 = 0.6007 | x1 = 0.6996 | x1 = 0.7994 | x1 = 0.8991 | x1 = 1
288.15 K | 1.40584 | 1.40986 | 1.41343 | 1.41668 | 1.41965 | 1.42221 | 1.42454 | 1.4267 | 1.42867 | 1.4305
293.15 K | 1.40378 | 1.40776 | 1.41135 | 1.41458 | 1.41754 | 1.4201 | 1.42243 | 1.4246 | 1.42658 | 1.42842
298.15 K | 1.40169 | 1.40568 | 1.40925 | 1.41247 | 1.41541 | 1.418 | 1.42033 | 1.4225 | 1.42451 | 1.42636
303.15 K | 1.39959 | 1.40356 | 1.40713 | 1.41033 | 1.41329 | 1.41588 | 1.41823 | 1.42042 | 1.42242 | 1.42429
308.15 K | 1.39746 | 1.40144 | 1.40498 | 1.4082 | 1.41109 | 1.41376 | 1.41612 | 1.41832 | 1.42035 | 1.42222
313.15 K | 1.39533 | 1.3993 | 1.40285 | 1.40603 | 1.40901 | 1.41163 | 1.41402 | 1.41623 | 1.41828 | 1.42017
318.15 K | 1.39323 | 1.39716 | 1.40072 | 1.40393 | 1.40688 | 1.40952 | 1.4119 | 1.41415 | 1.41622 | 1.41819
323.15 K | 1.39109 | 1.39505 | 1.39859 | 1.40177 | 1.40473 | 1.4074 | 1.40981 | 1.41207 | 1.41416 | 1.41614

— the NIST ThermoML archive (doi:10.1016/j.tca.2012.01.013)
